Laboratory results from the supplement of paper PMC10307832.

Key:
Test in all cases: relative viability (nuclei count vs DMSO), 5 days (fraction); higher = more cells survive
LXF-289 = system: LXF-289
How it was run: (§1)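 Dosing by pin tool came one day after lung cancer cell lines were seeded in 1536-well plates, using either one drug or a fixed anchor-drug dose plus five library-drug doses (not always all listed) in √10 steps. After 5 days, nuclei were counted on 4× images. Relative viability is treated-well nuclei count divided by vehicle-well nuclei count, and values are medians of duplicate plates.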

NCI-H2085 = system: NCI-H2085
How it was run: as §1

LCLC-97TM1 = system: LCLC-97TM1
How it was run: as §1

NCI-H596 = system: NCI-H596
How it was run: as §1

NCI-H1793 = system: NCI-H1793
How it was run: as §1

NCI-H441 = system: NCI-H441
How it was run: as §1

NCI-H1666 = system: NCI-H1666
How it was run: as §1

HOP-62 = system: HOP-62
How it was run: as §1

PC-14 = system: PC-14
How it was run: as §1

COR-L23 = system: COR-L23
How it was run: as §1

NCI-H2126 = system: NCI-H2126
How it was run: as §1

H3255 = system: H3255
How it was run: as §1

NCI-H661 = system: NCI-H661
How it was run: as §1

NCI-H1437 = system: NCI-H1437
How it was run: as §1

EPLC-272H = system: EPLC-272H
How it was run: as §1

NCI-H1650 = system: NCI-H1650
How it was run: as §1

ChaGo-K-1 = system: ChaGo-K-1
How it was run: as §1

HARA = system: HARA
How it was run: as §1

HCC-78 = system: HCC-78
How it was run: as §1

NCI-H1944 = system: NCI-H1944
How it was run: as §1

NCI-H1395 = system: NCI-H1395
How it was run: as §1

NCI-H2087 = system: NCI-H2087
How it was run: as §1

NCI-H3122 = system: NCI-H3122
How it was run: as §1

## CCNC(=O)c1noc(-c2cc(C(C)C)c(O)cc2O)c1-c1ccc(CN2CCOCC2)cc1 [Luminespib] + Cc1cc(Nc2cc(N3CCN(C)CC3)nc(Sc3ccc(NC(=O)C4CC4)cc3)n2)n[nH]1 [Tozasertib] (partner 0.1 µM)
LXF-289; first compound 0.002 µM
  relative viability: 0.225
LXF-289; first compound 0.006325 µM
  relative viability: 0.216
LXF-289; first compound 0.02 µM
  relative viability: 0.222
LXF-289; first compound 0.06325 µM
  relative viability: 0.141
LXF-289; first compound 0.2 µM
  relative viability: 0.0935
NCI-H2085; first compound 0.002 µM
  relative viability: 0.804
NCI-H2085; first compound 0.006325 µM
  relative viability: 0.749
NCI-H2085; first compound 0.02 µM
  relative viability: 0.758
NCI-H2085; first compound 0.06325 µM
  relative viability: 0.879
NCI-H2085; first compound 0.2 µM
  relative viability: 0.607
LCLC-97TM1; first compound 0.002 µM
  relative viability: 0.198
LCLC-97TM1; first compound 0.006325 µM
  relative viability: 0.268
LCLC-97TM1; first compound 0.02 µM
  relative viability: 0.117
LCLC-97TM1; first compound 0.06325 µM
  relative viability: 0.241
LCLC-97TM1; first compound 0.2 µM
  relative viability: 0.214
NCI-H596; first compound 0.002 µM
  relative viability: 0.959
NCI-H596; first compound 0.006325 µM
  relative viability: 1.01
NCI-H596; first compound 0.02 µM
  relative viability: 0.804
NCI-H596; first compound 0.06325 µM
  relative viability: 0.876
NCI-H596; first compound 0.2 µM
  relative viability: 0.657
NCI-H1793; first compound 0.002 µM
  relative viability: 0.345
NCI-H1793; first compound 0.006325 µM
  relative viability: 0.346
NCI-H1793; first compound 0.02 µM
  relative viability: 0.296
NCI-H1793; first compound 0.06325 µM
  relative viability: 0.307
NCI-H1793; first compound 0.2 µM
  relative viability: 0.13
NCI-H441; first compound 0.002 µM
  relative viability: 0.671
NCI-H441; first compound 0.006325 µM
  relative viability: 0.507
NCI-H441; first compound 0.02 µM
  relative viability: 0.647
NCI-H441; first compound 0.06325 µM
  relative viability: 0.186
NCI-H441; first compound 0.2 µM
  relative viability: 0.148
NCI-H1666; first compound 0.002 µM
  relative viability: 0.64
NCI-H1666; first compound 0.006325 µM
  relative viability: 0.583
NCI-H1666; first compound 0.02 µM
  relative viability: 0.601
NCI-H1666; first compound 0.06325 µM
  relative viability: 0.732
NCI-H1666; first compound 0.2 µM
  relative viability: 0.538
HOP-62; first compound 0.002 µM
  relative viability: 0.363
HOP-62; first compound 0.006325 µM
  relative viability: 0.352
HOP-62; first compound 0.02 µM
  relative viability: 0.403
HOP-62; first compound 0.06325 µM
  relative viability: 0.389
HOP-62; first compound 0.2 µM
  relative viability: 0.232
PC-14; first compound 0.002 µM
  relative viability: 0.567
PC-14; first compound 0.006325 µM
  relative viability: 0.547
PC-14; first compound 0.02 µM
  relative viability: 0.326
PC-14; first compound 0.06325 µM
  relative viability: 0.0498
PC-14; first compound 0.2 µM
  relative viability: 0.0697
COR-L23; first compound 0.002 µM
  relative viability: 0.237
COR-L23; first compound 0.006325 µM
  relative viability: 0.192
COR-L23; first compound 0.02 µM
  relative viability: 0.272
COR-L23; first compound 0.06325 µM
  relative viability: 0.0698
COR-L23; first compound 0.2 µM
  relative viability: 0.0682
NCI-H2126; first compound 0.002 µM
  relative viability: 0.844
NCI-H2126; first compound 0.006325 µM
  relative viability: 0.879
NCI-H2126; first compound 0.02 µM
  relative viability: 0.661
NCI-H2126; first compound 0.06325 µM
  relative viability: 0.5
NCI-H2126; first compound 0.2 µM
  relative viability: 0.264
H3255; first compound 0.002 µM
  relative viability: 0.7
H3255; first compound 0.006325 µM
  relative viability: 0.69
H3255; first compound 0.06325 µM
  relative viability: 0.7
H3255; first compound 0.2 µM
  relative viability: 0.25
NCI-H661; first compound 0.002 µM
  relative viability: 0.352
NCI-H661; first compound 0.006325 µM
  relative viability: 0.358
NCI-H661; first compound 0.02 µM
  relative viability: 0.348
NCI-H661; first compound 0.06325 µM
  relative viability: 0.357
NCI-H661; first compound 0.2 µM
  relative viability: 0.292
NCI-H1437; first compound 0.002 µM
  relative viability: 0.385
NCI-H1437; first compound 0.006325 µM
  relative viability: 0.359
NCI-H1437; first compound 0.02 µM
  relative viability: 0.497
NCI-H1437; first compound 0.06325 µM
  relative viability: 0.508
NCI-H1437; first compound 0.2 µM
  relative viability: 0.238
EPLC-272H; first compound 0.002 µM
  relative viability: 0.282
EPLC-272H; first compound 0.006325 µM
  relative viability: 0.296
EPLC-272H; first compound 0.06325 µM
  relative viability: 0.399
EPLC-272H; first compound 0.2 µM
  relative viability: 0.22
NCI-H1650; first compound 0.002 µM
  relative viability: 0.412
NCI-H1650; first compound 0.006325 µM
  relative viability: 0.455
NCI-H1650; first compound 0.02 µM
  relative viability: 0.168
NCI-H1650; first compound 0.06325 µM
  relative viability: 0.153
NCI-H1650; first compound 0.2 µM
  relative viability: 0.145
ChaGo-K-1; first compound 0.002 µM
  relative viability: 0.23
ChaGo-K-1; first compound 0.006325 µM
  relative viability: 0.228
ChaGo-K-1; first compound 0.02 µM
  relative viability: 0.159
ChaGo-K-1; first compound 0.06325 µM
  relative viability: 0.186
ChaGo-K-1; first compound 0.2 µM
  relative viability: 0.201
HARA; first compound 0.002 µM
  relative viability: 0.158
HARA; first compound 0.006325 µM
  relative viability: 0.103
HARA; first compound 0.02 µM
  relative viability: 0.106
HARA; first compound 0.06325 µM
  relative viability: 0.172
HARA; first compound 0.2 µM
  relative viability: 0.339
HCC-78; first compound 0.002 µM
  relative viability: 0.399
HCC-78; first compound 0.006325 µM
  relative viability: 0.273
HCC-78; first compound 0.06325 µM
  relative viability: 0.467
HCC-78; first compound 0.2 µM
  relative viability: 0.303
NCI-H1944; first compound 0.002 µM
  relative viability: 0.253
NCI-H1944; first compound 0.006325 µM
  relative viability: 0.256
NCI-H1944; first compound 0.02 µM
  relative viability: 0.22
NCI-H1944; first compound 0.06325 µM
  relative viability: 0.197
NCI-H1944; first compound 0.2 µM
  relative viability: 0.22
NCI-H1395; first compound 0.002 µM
  relative viability: 0.783
NCI-H1395; first compound 0.006325 µM
  relative viability: 0.693
NCI-H1395; first compound 0.02 µM
  relative viability: 0.676
NCI-H1395; first compound 0.06325 µM
  relative viability: 0.386
NCI-H1395; first compound 0.2 µM
  relative viability: 0.322
NCI-H2087; first compound 0.002 µM
  relative viability: 0.26
NCI-H2087; first compound 0.006325 µM
  relative viability: 0.29
NCI-H2087; first compound 0.02 µM
  relative viability: 0.243
NCI-H2087; first compound 0.06325 µM
  relative viability: 0.113
NCI-H2087; first compound 0.2 µM
  relative viability: 0.0985
NCI-H3122; first compound 0.002 µM
  relative viability: 0.451
NCI-H3122; first compound 0.006325 µM
  relative viability: 0.39
NCI-H3122; first compound 0.02 µM
  relative viability: 0.106
NCI-H3122; first compound 0.06325 µM
  relative viability: 0.0834
NCI-H3122; first compound 0.2 µM
  relative viability: 0.0832
